Reference: patent US7259262B2, “Arylazole derivatives, their manufacture and use as pharmaceutical agents” (Hoffmann-La Roche Inc., priority 2003, dated 2007)

Experiments:
[1] = tested on: A549 cells (human lung carcinoma cell line); assay: A549 cell proliferation MTT assay; type: cell-based; conditions: 120 h, 5 days incubation, MTT readout at 550 nm
Method: A549 cells (human lung carcinoma cell line) were cultivated in RPMI 1640, 2.5% FCS, 2 mM glutamine, 100 u/ml Penicillin, 100 μg/ml Streptomycin. For the assay the cells were seeded in 384 well plates, 900 cells per well, in the same medium. The next day compounds (dissolved 10 mM in DMSO) were added in various concentrations ranging from 3 μM to 0.15 nM (10 concentrations, 1:3 diluted). After 5 days the MTT assay was done mainly according to the instructions of the manufacturer (Cell proliferation kit I, MTT, from Roche Molecular Biochemicals). In brief, MTT labeling reagent was added to a final concentration of 0.5 mg/ml, added and incubated for 4 hrs at 37 C, 5% CO2. During this incubation time purple formazan crystals are formed. After addition of the solubilization solution (20% SDS in 0.02 M HCl) the plates were incubated overnight at 37° C., 5% CO2.
After careful mixing the plates were measured in Victor 2 (scanning multiwell spectrophotometer, Wallac) at 550 nm.
A decrease in number of living cells results in a decrease in the total metabolic activity in the sample. The decrease directly correlates to the amount of purple color resulting from the solubilization of the purple formazan crystals.
A549: 900 cells in 60 μl per well of 384 well plate (Greiner) • Medium: RPMI 1640, 2.5% FCS, glutamine, pen/strep. • Incubate 1 day at 37° C.
Induction: • Dilution of compound in DMSO: 3 μl 10 mM+27 μl DMSO, dilute 1:3 • Add 2 μl of compound dilution row to 95 μl of medium • Add 10 μl of compound dilution to 60 μl medium in test plate ? 0.3% DMSO per well • Incubate 120 h (5 days) at 37° C., 5% CO2
Analysis: • Add 7 μl MTT (5 mg/ml/well), incubate 4 h at 37° C. • Add 30 μl lysis buffer (20% SDS, 0.04 N HCl) per well • Incubate overnight at 37° C.
Measurement: • Victor 2; 550 nm • Determination of IC50 was done using XL-fit.

Row | SMILES | melting point | IC50 [1]
1 | FC(F)(F)Sc1ccc(/C=C/c2nc(COc3ccc(-c4nc(Cn5ccnc5)co4)cc3)co2)cc1 [Example 16, 1-[2-(4-{2-[(E)-2-(−4-Trifluoromethylsulfanyl-phenyl)-vinyl]-oxazol-4-ylmethoxy}-phenyl)-oxazol-4-ylmethyl]-1H-imidazole] | 144 to 145 °C | 
2 | Fc1cc(C(F)(F)F)ccc1/C=C/c1nc(COc2ccc(-c3nc(Cn4ccnc4)co3)cc2)co1 [Example 13, 2-[(E)-2-(2-Fluoro-4-trifluoromethyl-phenyl)-vinyl]-4-[4-(4-imidazol-1-ylmethyl-oxazol-2-yl)-phenoxymethyl]-oxazole] | 150 to 153 °C | 
3 | Fc1cc(C(F)(F)F)ccc1/C=C/c1nc(COc2ccc(-c3nc(Cn4ccnn4)cs3)cc2)co1 [Example 8, 1-[2-(4-{2-[(E)-2-(2-Fluoro-4-trifluoromethyl-phenyl)-vinyl]-oxazol-4-ylmethoxy}-phenyl)-thiazol-4-ylmethyl]-1H-[1,2,3]triazole] | 180 to 182 °C | 70 nM
4 | OCCc1nccn1Cc1coc(-c2ccc(OCc3coc(/C=C/c4ccc(Cl)cc4F)n3)cc2)n1 [Example 18, 2-{1-[2-(4-{2-[(E)-2-(4-Chloro-2-fluoro-phenyl)-vinyl]-oxazol-4-ylmethoxy}-phenyl)-oxazole-4-ylmethyl]-1H-imidazol-2-yl}-ethanol] | 170 to 172 °C | 
5 | FC(F)(F)c1ccc(/C=C/c2nc(COc3ccc(-c4nc(Cn5ccnn5)cs4)cc3)cs2)cc1 [Example 11, 1-[2-(4-{2-[(E)-2-(4-Trifluoromethyl-phenyl)-vinyl]-thiazol-4-ylmethoxy}-phenyl) -thiazole-4-ylmethyl]-1H-[1,2,3]triazole] | 146 to 148 °C | 
6 | Fc1cc(Cl)ccc1/C=C/c1nc(COc2ccc(-c3nc(Cn4ccnn4)co3)cc2)co1 [Example 9, 1-[2-(4-{2-[(E)-2-(4-Chloro-2-fluoro-phenyl)-vinyl]-oxazol-4-ylmethoxy}-phenyl)oxazole-4-ylmethyl]-1H-[1,2,3]triazole] | 193 to 194 °C | 11 nM
7 | FS(F)(F)(F)(F)c1ccc(/C=C/c2nc(COc3ccc(-c4nc(Cn5ccnn5)co4)cc3)co2)cc1 [Example 19, 1-[2-(4-{2-[(E)-2-(4-Pentafluorosulfanyl-phenyl)-vinyl]-oxazol-4-ylmethoxy}-phenyl) -oxazol-4-ylmethyl]-1H-[1,2,3]triazole] | 172 to 174 °C | 
8 | Fc1cc(C(F)(F)F)ccc1/C=C/c1nc(COc2ccc(-c3nc(Cn4ccnc4)cs3)cc2)co1 [Example 12, 2-[(E)-2-(2-Fluoro-4-trifluoromethyl-phenyl)-vinyl]-4-[4-(4-imidazol-1-ylmethyl-thiazole-2-yl)-phenoxymethyl]-oxazole] | 133 to 135 °C | 
9 | COc1ccc(/C=C/c2nc(COc3ccc(-c4nc(Cn5ccnn5)co4)cc3)co2)cc1 [Example 1, 1-[2-(4-{2-[(E)-2-(4-Methoxy-phenyl)-vinyl]-oxazol-4-ylmethoxy}-phenyl)-oxazol-4-ylmethyl]-1H-[1,2,3]triazole] | 178 °C | 

Now from value to molecule:

Row | melting point | IC50 [1] | SMILES
10 | 163 to 165 °C | 37 nM | FC(F)(F)c1ccc(/C=C/c2nc(COc3ccc(-c4nc(Cn5ccnn5)cs4)cc3)co2)cc1 [Example 7, 1-[2-(4-{2-[(E)-2-(4-Trifluoromethyl-phenyl)-vinyl]-oxazol-4-ylmethoxy}-phenyl) -thiazol-4-ylmethyl]-1H-[1,2,3]triazole]
11 | 172 to 173 °C | 46 nM | FC(F)(F)Sc1ccc(/C=C/c2nc(COc3ccc(-c4nc(Cn5ccnn5)co4)cc3)co2)cc1 [Example 3, 1-[2-(4-{2-[(E)-2-(−4-Trifluoromethylsulfanyl-phenyl)-vinyl]-oxazol-4-ylmethoxy}-phenyl)-oxazol-4-ylmethyl]-1H-[1,2,3]triazole]
12 | 179 to 181 °C | 60 nM | FC(F)(F)c1ccc(/C=C/c2nc(COc3ccc(-c4nc(Cn5ccnn5)co4)cc3)cs2)cc1 [Example 10, 1-[2-(4-{2-[(E)-2-(4-Trifluoromethyl-phenyl)-vinyl]-thiazol-4-ylmethoxy}-phenyl) -oxazol-4-ylmethyl]-1H-[1,2,3]triazole]
13 | 166 to 167 °C |  | Fc1cc(Cl)ccc1/C=C/c1nc(COc2ccc(-c3nc(Cn4ccnc4)co3)cc2)co1 [Example 14, 2-[(E)-2-(2-Fluoro-4-chloro-phenyl)-vinyl]-4-[4-(4-imidazol-1-ylmethyl-oxazol-2-yl)phenoxymethyl]-oxazole]
14 | 166 to 172 °C | 46 nM | FC(F)(F)Oc1ccc(/C=C/c2nc(COc3ccc(-c4nc(Cn5ccnn5)co4)cc3)co2)cc1 [Example 2, 1-[2-(4-{2-[(E)-2-(4-Trifluoromethoxy-phenyl)-vinyl]-oxazol-4-ylmethoxy}-phenyl) -oxazol-4-ylmethyl]-1H-[1,2,3]triazole]
15 | 134 to 136 °C |  | [O-][S+](c1ccc(/C=C/c2nc(COc3ccc(-c4nc(Cn5ccnc5)co4)cc3)co2)cc1)C(F)(F)F (stereo not shown) [Example 17, 1-[2-(4-{2-[(E)-2-(−4-Trifluoromethylsulfinyl-phenyl)-vinyl]-oxazol-4-ylmethoxy}-phenyl)-oxazol-4-ylmethyl]-1H-imidazole]
16 | 170 °C | 45 nM | FC(F)(F)c1ccc(/C=C/c2nc(COc3ccc(-c4nc(Cn5ccnn5)co4)cc3)co2)cc1 [Example 4, 1-[2-(4-{2-[(E)-2-(4-Trifluoromethyl-phenyl)-vinyl]-oxazol-4-ylmethoxy}-phenyl) -oxazol-4-ylmethyl]-1H-[1,2,3]triazole]
17 | 152 to 154 °C | 7 nM | Fc1cc(C(F)(F)F)ccc1/C=C/c1nc(COc2ccc(-c3nc(Cn4ccnn4)co3)cc2)co1 [Example 6, 1-[2-(4-{2-[(E)-2-(2-Fluoro-4-trifluoromethyl-phenyl)-vinyl]-oxazol-4-ylmethoxy}-phenyl)-oxazol-4-ylmethyl]-1H-[1,2,3]triazole]
18 | 167 to 169 °C |  | [O-][S+](c1ccc(/C=C/c2nc(COc3ccc(-c4nc(Cn5ccnn5)co4)cc3)co2)cc1)C(F)(F)F (stereo not shown) [Example 15, 1-[2-(4-{2-[(E)-2-(−4-Trifluoromethylsulfinyl-phenyl)-vinyl]-oxazol-4-ylmethoxy}-phenyl)-oxazol-4-ylmethyl]-1H-[1,2,3]triazole]
19 | 208 to 210 °C | 69 nM | Clc1ccc(/C=C/c2nc(COc3ccc(-c4nc(Cn5ccnn5)co4)cc3)co2)cc1 [Example 5, 1-[2-(4-{2-[(E)-2-(4-Chloro-phenyl)-vinyl]-oxazol-4-ylmethoxy}-phenyl)-oxazol-4-ylmethyl]-1H-[1,2,3]triazole]
